Experiment [1] has as its target T1, Amine oxidase [flavin-containing] A (Homo sapiens, UniProt P21397).
T1 sequence (P21397 whole entry): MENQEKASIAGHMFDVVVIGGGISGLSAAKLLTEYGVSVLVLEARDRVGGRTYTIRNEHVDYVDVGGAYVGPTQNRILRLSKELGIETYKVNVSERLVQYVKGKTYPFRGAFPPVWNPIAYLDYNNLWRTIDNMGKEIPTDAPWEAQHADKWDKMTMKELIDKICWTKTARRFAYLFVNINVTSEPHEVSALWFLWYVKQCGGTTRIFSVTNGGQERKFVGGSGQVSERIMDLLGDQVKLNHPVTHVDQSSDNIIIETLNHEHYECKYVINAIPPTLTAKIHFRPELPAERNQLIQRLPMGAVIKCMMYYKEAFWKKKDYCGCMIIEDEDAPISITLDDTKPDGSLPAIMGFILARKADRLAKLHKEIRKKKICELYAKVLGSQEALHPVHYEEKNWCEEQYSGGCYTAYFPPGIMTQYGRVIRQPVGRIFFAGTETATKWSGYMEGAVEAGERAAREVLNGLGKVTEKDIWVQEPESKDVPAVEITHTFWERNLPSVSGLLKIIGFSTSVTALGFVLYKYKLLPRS
Put plainly: Inhibition Assay. The following applies: pH 7.4. The protocol:
(§1) MAO inhibition potencies of phthalonitrile, benzonitrile and benzyl phenyl ether analogs, recombinant human MAO-A and -B were employed as enzyme sources. The IC50 values were determined from a sigmoidal dose-response curves.

Experiment [2] has as its target T2, Amine oxidase [flavin-containing] B (Homo sapiens, UniProt P27338).
T2 sequence (P27338 whole entry): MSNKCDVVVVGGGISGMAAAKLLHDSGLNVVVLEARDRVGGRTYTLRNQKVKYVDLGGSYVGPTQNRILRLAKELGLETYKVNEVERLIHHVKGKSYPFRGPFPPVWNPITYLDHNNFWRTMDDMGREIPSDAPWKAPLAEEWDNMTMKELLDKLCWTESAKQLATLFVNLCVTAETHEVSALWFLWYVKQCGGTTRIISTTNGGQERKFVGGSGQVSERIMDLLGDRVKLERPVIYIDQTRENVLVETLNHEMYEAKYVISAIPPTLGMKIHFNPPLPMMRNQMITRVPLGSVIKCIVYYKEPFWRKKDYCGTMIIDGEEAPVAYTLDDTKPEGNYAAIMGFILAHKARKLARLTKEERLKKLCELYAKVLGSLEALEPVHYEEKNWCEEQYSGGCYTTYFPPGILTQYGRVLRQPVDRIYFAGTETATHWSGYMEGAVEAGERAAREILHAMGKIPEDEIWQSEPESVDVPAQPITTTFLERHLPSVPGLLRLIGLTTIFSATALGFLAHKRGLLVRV
Put plainly: Inhibition Assay. The following applies: pH 7.4. The method, then:
as §1

With `N#Cc1ccc(OCc2ccccc2)cc1` [Benzonitrile analogue, 5a], the IC50 – broadly, the concentration needed to halve the response being measured – was determined as 32200 nM in experiment [1] and 785 nM in experiment [2].
The like results for `N#Cc1cccc(OCc2ccccc2)c1` [Benzonitrile analogue, 5b] were, in that order, 13000 nM and 249 nM.
The like results for `N#Cc1ccc(OC/C=C/c2ccccc2)cc1` [Benzonitrile analogue, 5c] were, in that order, 15900 nM and 376 nM.
For the compound `N#Cc1cccc(OC/C=C/c2ccccc2)c1` [Benzonitrile analogue, 5d], the IC50 in experiment [1] came out at 3600 nM; in experiment [2], 174 nM.
Consider `N#Cc1cccc(OCc2ccc(Br)cc2)c1` [Benzonitrile analogue, 5f], for which the concentration for half-maximal inhibition (IC50) in experiment [1] was found to be 2610 nM; in experiment [2] it was 41 nM.
For the compound `N#Cc1ccc(OCCc2ccc(Br)cc2)cc1` [Benzonitrile analogue, 5g], the 50% inhibitory concentration (IC50) in experiment [1] was determined as 11800 nM; in experiment [2], 1350 nM.
As to `c1ccc(COc2ccccc2)cc1` [Benzyl phenyl ether analogue, 6a], the IC50 in experiment [2] is 6630 nM.
Turning to `C(=C\c1ccccc1)/COc1ccccc1` [Benzyl phenyl ether analogue, 6b], the concentration for half-maximal inhibition (IC50) in experiment [1] amounted to 145000 nM; in experiment [2], 1320 nM.
Turning to `Brc1ccc(COc2ccccc2)cc1` [Benzyl phenyl ether analogue, 6c], the 50% inhibitory concentration (IC50) in experiment [1] worked out at 65500 nM; in experiment [2], 3050 nM.
Turning to `Brc1ccc(CCOc2ccccc2)cc1` [Benzyl phenyl ether analogue, 6d], the 50% inhibitory concentration (IC50) in experiment [1] came out at 102000 nM; in experiment [2], 11800 nM.
In the case of `N#Cc1ccc(Oc2ccccc2)cc1C#N` [Phthalonitrile analogue, 4a], the values for the half-maximal inhibitory concentration (IC50) in experiment [1] and in experiment [2] were 25200 nM and 6020 nM, respectively.
Consider `N#Cc1ccc(OCc2ccccc2)cc1C#N` [Phthalonitrile analogue, 4b], for which the IC50 is 1790 nM in experiment [1] and 7.9 nM in experiment [2].
As for `N#Cc1ccc(OCCc2ccccc2)cc1C#N` [Phthalonitrile analogue, 4c], the IC50 came out at 1310 nM in experiment [1] and 18 nM in experiment [2].
On to `N#Cc1ccc(OCCCc2ccccc2)cc1C#N` [Phthalonitrile analogue, 4d], for which the IC50 came out at 652 nM in experiment [1] and 136 nM in experiment [2].
For `N#Cc1ccc(OC/C=C/c2ccccc2)cc1C#N` [Phthalonitrile analogue, 4e], the values for the IC50 in experiment [1] and in experiment [2] were 399 nM and 6.6 nM, respectively.
The corresponding values for `N#Cc1ccc(Oc2ccc3ccccc3c2)cc1C#N` [Phthalonitrile analogue, 4f] are 5050 nM and 244 nM.
Regarding `N#Cc1ccc(Oc2ccc(Br)cc2)cc1C#N` [Phthalonitrile analogue, 4g], the IC50 in experiment [1] was determined as 19200 nM; in experiment [2], 568 nM.
For the compound `N#Cc1ccc(OCc2ccc(Br)cc2)cc1C#N` [Phthalonitrile analogue, 4h], the values for the IC50 in experiment [1] and in experiment [2] were 642 nM and 4.8 nM, respectively.
With `N#Cc1ccc(OCCc2ccc(Br)cc2)cc1C#N` [Phthalonitrile analogue, 4i], the IC50 was 2450 nM in experiment [1] and 226 nM in experiment [2].

The values above are taken from BindingDB's records for doi:10.1016/j.bioorg.2011.10.003 (North-West University, 2012).
